Source: patent US6962921B2, “Dementia remedies containing 2-aryl-8-oxodihydropurine derivatives as the active ingredient” (Dainippon Pharmaceutical Co., Ltd., priority 2000, dated 2005)

Columns and labels:
[1] = system: scopolamine-induced spatial memory disorder; test: Ameliorating effect on spatial memory disorder induced by scopolamine (Y-maze, alternation behavior); type: in vivo; conditions: Std-ddY male mice, oral, 1 hour before scopolamine 0.6 mg/kg s.c., 5% significance level
Method: Experiment 1: Ameliorating Effect on Spatial Memory Disorder Induced by Scopolamine. The spatial memory test using Y-maze apparatus is a test to utilize the behavioral property of animals to enter into a new arm, avoiding the arm that they entered into just before (alternation behavior). This method is often used in order to study spatial working memory. This experiment was carried out according to the method of Itoh, J., et al. [Eur. J. Pharmacol., 236, 341-345 (1993)]. Std-ddY male mice weighing 25-30 g (8 mice per one group) were used in the experiment. A solution of scopolamine in physiological saline (concentration: 0.06 mg/ml) was subcutaneously administered to mice in a volume of 0.1 ml/10 g of body weight, i.e., 0.6 mg/kg. Mice in the test compound group were orally treated with the test compound suspended in 0.5% tragacanth solution in a volume of 0.1 ml/10 g of body weight 1 hour before scopolamine administration, while animals in the amnesia control group and the vehicle control group received a 0.5% tragacanth solution in the same manner as above. However, the vehicle control group was injected with physiological saline instead of scopolamine. Thirty minutes after administration of scopolamine, the mice were placed at the end of the arm A of the Y-maze apparatus which was composed of three black acrylic trapezoid arms (bottom width: 3 cm, height of side wall: 12 cm, width of opened ceiling: 10 cm, length: 40 cm), wherein said three arms were connected at the one end of each arm to form Y-shape and another ends were closed, and the three arms were differentiated by the names as A, B and C respectively, and allowed to search freely the maze for 8 minutes. When the mouse was checked to enter into an arm at the length of not less than 10 cm from the entrance of the arm, the name of the arm (A, B or C) was recorded. It could be defined as a correct choice when the mouse selected the different three arms sequentially, and the number of alternation behavior i.e., the number of correct choices was counted. In the case that the total number of arm entries was less than 10 [the maximum number of alternation behavior (the number obtained by subtracting 2 from the total number of arm entries) is less than 8], the resulting data were not used and the retest was carried out instead, because the ability of learning could not occasionally reflect the alternation behavior. For the final data gotten, the ratio of the number of the alternation behavior to that of the entries (obtained by subtracting 2 from the total number of arm entries) was estimated as the rate of alternation behavior. In statistical analysis, the rate of alternation behavior in the amnesia control group was compared with that in the vehicle control group by the nonparametric Wilcoxon rank sum test and it was checked if a significant amnesia was induced in the amnesia control group. Next, the efficacy of the test compounds was evaluated in comparison between the amnesia control group and the test compound group by the nonparametric Dunnett multiple comparison test. The statistical calculation was carried out with SAS system Version 6.12 (SAS Institute Japan Ltd.).

[2] = system: scopolamine-induced object memory impairment; test: Ameliorating effect on object memory disorder induced by scopolamine (object recognition test); type: in vivo; conditions: Std-ddY male mice, oral; for MED (minimum effective dose), significant difference in the discrimination index, scopolamine-induced object memory impairment: 30 minutes before scopolamine 0.4 mg/kg s.c., 5% significance level
Method: Experiment 2: Ameliorating Effect on Object Memory Disorder Induced by Scopolamine. The object recognition test is a test method using the property which animals like to search a novel object. This method is often used in order to study the memorization and retention of episodic memory. This experiment was carried out according to the partially modified method of Bartolini, L. et al. [Pharmacol. Biochem. Behav., 53, 277-283 (1996)]. Std-ddY male mice weighing 25-30 g (six mice per one group) were used in the experiment. Scopolamine dissolved in physiological saline (concentration: 0.04 mg/ml) was subcutaneously administered to mice in a volume of 0.1 ml per 10 g of body weight, i.e., 0.4 mg/kg. For the test compound group, the test compound suspended in 0.5% tragacanth solution was orally administered in a volume of 0.1 ml per 10 g of body weight, 30 minutes before scopolamine administration, and for the amnesia control group and the vehicle control group, a 0.5% tragacanth solution was administered in the same manner as above. However, for the vehicle control group, physiological saline was administered instead of scopolamine. Thirty minutes after the administration of scopolamine, the first trial was carried out for 5 minutes, and 1 hour after the first trial, the second trial was carried out for 5 minutes. In the first trial, the two same-shaped objects [red frustum-formed funnel adaptors made of silicon (bottom diameter: 6.1 cm, ceiling diameter: 4.5 cm, height: 3.5 cm)] are put on the two adjacent corners of the test box made of brown acrylic (length: 22.5 cm, width: 24.5 cm, height: 11 cm), and the time that the mouse explored each object was measured. In the second trial, the object (familiar: F) which the exploration time was longer in the first trial was retained, while another object in the first trial was replaced by the novel object [novel: N, red diver ring (outside diameter: 7.5 cm, inside diameter: 2.5 cm, thickness: 2.0 cm)] at the same position, and then the time for exploring each object was measured. The rate of object memory impairment was obtained from the formula: (N−F)/(N+F) as a discrimination index, and the comparison between the vehicle control group and the amnesia control group, and between the amnesia control group and the test compound group was carried out on the basis of said discrimination index. In statistical analysis, the comparison between the vehicle control group and the amnesia control group was carried out by the Student's t test and it was checked whether a significant amnesia was induced. The efficacy of the test compounds was evaluated on the basis of comparison between the amnesia control group and the test compound group by the parametric Dunnett's multiple comparison test. […]

[3] = system: MK-801-induced object location memory impairment; test: Ameliorating effect on the impairment of object location memory induced by MK-801 (object location memory test); type: in vivo, mice; conditions: oral; for MED (minimum effective dose), significant ameliorating effect on MK-801-induced object location memory impairment: Std-ddY male mice, 30 minutes before MK-801 0.05 mg/kg s.c., 5% significance level; for effective dose relative to the dose of FGIN-1-27: MK-801-induced object location memory impairment, mice
From the text: Experiment 3: Ameliorating Effect on the Impairment of Object Location Memory Induced by MK-801.
The object location memory test is a test method using the property which animals like to search a novelty caused by the change of an object location. This method is often used in order to study the ability of object location memory. This method is closely related with hypofunction of glutamatergic system and cause the location memory impairment selectively without the impairment of object memory which is induced by hypofunction of cholinergic system.
This experiment was carried out according to the partially modified method of Sophie L. Dix, et al. [Behav. Brain Res., 99, 191-200 (1999)].
Std-ddY male mice weighing 25-30 g (six mice per one group) were used in the experiment. A solution of MK-801 in physiological saline (concentration: 0.005 mg/ml) was subcutaneously administered in a volume of 0.1 ml per 10 g of body weight, i.e., 0.05 mg/kg. For the test compound group, the test compound suspended in 0.5% tragacanth solution was orally administered in a volume of 0.1 ml per 10 g of body weight, 30 minutes before MK-801 administration, and for the amnesia control group and the vehicle control group, a 0.5% tragacanth solution was administered in the same manner as above. However, for the vehicle control group, physiological saline was administered instead of MK-801. Thirty minutes after the administration of MK-801, the first trial was carried out for 5 minutes, and 1 hour after the first trial, the second trial was carried out for 5 minutes. In the first trial, the two same-shaped objects [red frustum-formed funnel adaptors made of silicon (bottom diameter: 6.1 cm, ceiling diameter: 4.5 cm, height: 3.5 cm)] were respectively put in the center and one of the corners of the test box made of brown acrylic (length: 22.5 cm, width 24.5 cm, height: 11 cm), and the time which the mouse explored each object was measured. In the second trial, the object (displaced object: DO) which was located in the center in the first trial was displaced in the opposite corner to another object (non displaced object: NDO), and then the time which the mouse explored each object was measured. The difference in the exploration time of DO and NDO respectively between the first trial and the second trial was calculated, and the comparison between the vehicle control group and the amnesia control group, and between the amnesia control group and the test compound group was carried out.
In statistical analysis, the comparison between the vehicle control group and the amnesia control group was carried out by the Student's t test and it was confirmed whether a significant object location memory impairment was induced. The efficacy of the test compounds was evaluated by comparing the amnesia control group with the test compound group using the parametric Dunnett's multiple comparison test. The statistical calculation was carried out with SAS system Version 6.12 (SAS Institute Japan Ltd.).
Besides, in the vehicle control group, the exploration time for NDO in the second trial decreased and the exploration time for DO was obviously longer than that for NDO. […] On the other hand, in the amnesia control group with MK-801, both exploration time for NDO and DO decreased remarkably.

[4] = system: animal models of learning impairment; conditions: active avoidance test, radial-arm maze test, water maze test; cited from earlier work
Std-ddY male mice = test: Acute toxicity (Experiment 4); type: in vivo; conditions: oral 2000 mg/kg, observed for 7 days
Method: Experiment 4: Acute Toxicity
The experiment on the test compound C was carried out using Std-ddY male mice weighing 25-30 g (10 mice per each group).

Row | Compound | MED (minimum effective dose), significant ameliorating effect on scopolamine-induced spatial memory disorder in the rate of alternation behavior [1] [mg/kg] | MED (minimum effective dose), significant difference in the discrimination index, scopolamine-induced object memory impairment [2] [mg/kg] | MED (minimum effective dose), significant ameliorating effect on MK-801-induced object location memory impairment [3] [mg/kg] | ameliorating effects in animal models of learning impairment [4] | other results
1 | COc1ccc(N(C)C(=O)Cn2c(=O)n(C)c3cnc(-c4ccccc4)nc32)cc1 [Test Compound A, N-(4-methoxyphenyl)-7,8-dihydro-7-methyl-N-methyl-8-oxo-2-phenyl-9H-purin-9-acetamide] | 3 | – | – | – | –
2 | CCCCCCN(CCCCCC)C(=O)Cc1c(-c2ccc(F)cc2)[nH]c2ccccc12 [FGIN-1-27, N,N-di-n-hexyl-2-(4-fluorophenyl)indol-3-acetamide, reference compound] | 10 | >30 | 10 | weak ameliorating effects | ameliorating effect on scopolamine-induced object memory impairment at a stated dose ([2]; dose of 30 mg/kg): no significant ameliorating effect
3 | CCN(Cc1ccccc1)C(=O)Cn1c(=O)n(C)c2cnc(-c3ccccc3)nc21 [Test Compound E, N-benzyl-N-ethyl-7,8-dihydro-7-methyl-8-oxo-2-phenyl-9H-purin-9-acetamide] | 1 | 0.1 | 0.01 | – | effective dose relative to the dose of FGIN-1-27 [3]: less than 1/100
4 | CCN(Cc1ccccc1)C(=O)Cn1c(=O)n(CC)c2cnc(-c3ccccc3)nc21 [Test Compound D, N-benzyl-7-ethyl-N-ethyl-7,8-dihydro-8-oxo-2-phenyl-9H-purin-9-acetamide] | 3 | – | – | – | –
5 | pregnenolone sulfate | – | – | – | weak ameliorating effects | –
6 | CC(=O)[C@H]1CC[C@H]2[C@@H]3CC[C@H]4C[C@H](O)CC[C@]4(C)[C@H]3CC[C@]12C [allopregnanolone] | – | – | – | weak ameliorating effects | –
7 | CCN(C(=O)Cn1c(=O)n(C)c2nc(-c3ccccc3)ncc21)c1ccccc1 [Test Compound C, N-ethyl-8,9-dihydro-9-methyl-8-oxo-2-phenyl-N-phenyl-7H-purin-7-acetamide] | 0.01 | 0.01 | 0.1 | – | effective dose relative to the dose of FGIN-1-27 [3]: less than 1/100; lethality (Std-ddY male mice): no mouse treated with the test compound C died
8 | CCN(Cc1ccccc1)C(=O)Cn1c(=O)n(C)c2nc(-c3ccccc3)ncc21 [Test Compound B, N-benzyl-N-ethyl-8,9-dihydro-9-methyl-8-oxo-2-phenyl-7H-purin-7-acetamide] | 3 | – | – | – | –
